Target: ULK1 (Homo sapiens (Human), UniProt O75385)
Test: ULK1 inhibition assay (Table 1)
Format: biochemical
Settings: * = tested as a mixture of regioisomers

Sequence of ULK1 (O75385 whole entry, species assumed): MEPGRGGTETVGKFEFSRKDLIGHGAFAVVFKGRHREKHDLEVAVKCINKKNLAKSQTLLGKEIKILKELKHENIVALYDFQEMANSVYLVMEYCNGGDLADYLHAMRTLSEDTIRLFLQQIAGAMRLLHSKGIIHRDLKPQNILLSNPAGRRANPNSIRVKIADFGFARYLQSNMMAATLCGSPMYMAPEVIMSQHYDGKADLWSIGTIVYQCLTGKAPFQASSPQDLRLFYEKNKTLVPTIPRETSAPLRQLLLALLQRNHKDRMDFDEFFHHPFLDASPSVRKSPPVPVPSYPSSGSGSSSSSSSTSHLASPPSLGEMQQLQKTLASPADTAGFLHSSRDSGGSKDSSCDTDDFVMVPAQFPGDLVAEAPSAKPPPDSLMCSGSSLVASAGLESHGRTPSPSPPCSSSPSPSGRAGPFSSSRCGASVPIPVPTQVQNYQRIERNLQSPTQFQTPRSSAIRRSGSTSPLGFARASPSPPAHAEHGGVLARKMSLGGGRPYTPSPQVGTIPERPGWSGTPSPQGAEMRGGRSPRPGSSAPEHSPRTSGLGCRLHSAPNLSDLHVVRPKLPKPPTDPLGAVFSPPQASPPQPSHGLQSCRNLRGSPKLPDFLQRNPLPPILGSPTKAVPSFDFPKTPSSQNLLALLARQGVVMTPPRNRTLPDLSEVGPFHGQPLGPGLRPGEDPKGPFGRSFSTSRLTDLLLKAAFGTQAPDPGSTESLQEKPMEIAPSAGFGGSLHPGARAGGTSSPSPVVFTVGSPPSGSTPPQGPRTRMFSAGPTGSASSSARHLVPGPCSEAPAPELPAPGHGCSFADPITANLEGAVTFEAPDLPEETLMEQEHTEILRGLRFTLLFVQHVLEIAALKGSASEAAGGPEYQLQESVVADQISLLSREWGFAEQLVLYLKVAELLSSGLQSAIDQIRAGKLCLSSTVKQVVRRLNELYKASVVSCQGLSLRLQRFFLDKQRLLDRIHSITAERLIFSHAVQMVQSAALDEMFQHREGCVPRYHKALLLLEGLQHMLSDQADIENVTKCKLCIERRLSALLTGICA

Row | SMILES | IC50
1 | CNC(=O)c1ccccc1Nc1nc(Nc2cc(OC)c(OC)c(OC)c2)ncc1-c1ccccc1 [compound 73, N-Methyl-2-(5-phenyl-2-(3,4,5-trimethoxyphenylamino)pyrimidin-4-ylamino)benzamide] | < 200 nM
2 | CNC(=O)c1ccccc1Nc1nc(Nc2ccccc2Cl)ncc1Cl [compound 74, 2-(5-Chloro-2-(2-chlorophenylamino)pyrimidin-4-ylamino)-N-methylbenzamide] | 200 to 2000 nM
3 | CNS(=O)(=O)c1ccccc1Nc1nc(Nc2ccc(N3CCOCC3)cc2OC)ncc1Br [compound 75, 2-(5-Bromo-2-(2-methoxy-4-morpholinophenylamino)pyrimidin-4-ylamino)-N-methylbenzenesulfonamide] | 200 to 2000 nM
4 | CNC(=O)c1ccccc1Nc1nc(Nc2ccc3c(c2)CCC(=O)N3)ncc1C(F)(F)F [compound 76, N-Methyl-2-(2-(2-oxo-1,2,3,4-tetrahydroquinolin-6-ylamino)-5-(trifluoromethyl)pyrimidin-4-ylamino)benzamide] | < 200 nM
5 | CNC(=O)c1ccccc1Nc1nc(Nc2cc(N3CCOCC3)cc(N3CCOCC3)c2)ncc1Cl [compound 78, 2-(5-Chloro-2-(3,5-dimorpholinophenylamino)pyrimidin-4-ylamino)-N-methylbenzamide] | 200 to 2000 nM
6 | COc1cc(N2CCOCC2)ccc1Nc1ncc(Br)c(Nc2ccccc2S(=O)(=O)N(C)C)n1 [compound 80, 2-(5-Bromo-2-(2-methoxy-4-morpholinophenylamino)pyrimidin-4-ylamino)-N—N-dimethylbenzenesulfonamide] | < 200 nM
7 | O=C1CCc2cc(Nc3ncc(C(F)(F)F)c(OCc4ccccc4)n3)ccc2N1 [compound 81, 6-(4-(Benzyloxy)-5-(trifluoromethyl)pyrimidin-2-ylamino)-3,4-dihydroquinolin-2(1H)-one] | < 200 nM
8 | COc1c(C)cnc(CNc2nc(Nc3ccc4c(c3)CCC(=O)N4)ncc2C(F)(F)F)c1C [compound 82, 6-((4-(((4-Methoxy-3,5-dimethylpyridin-2-yl)methyl)amino)-5-(trifluoromethyl)pyrimidin-2-yl)amino)-3,4-dihydroquinolin-2(1H)-one] | < 200 nM
9 | Cc1cccc(Oc2nc(Nc3ccc4c(c3)CCC(=O)N4)ncc2C(F)(F)F)c1C [compound 83, 6-((4-(2,3-Dimethylphenoxy)-5-(trifluoromethyl)pyrimidin-2-yl)amino)-3,4-dihydroquinolin-2(1H)-one] | < 200 nM
10 | CNC(=O)c1ccccc1Nc1nc(Nc2cc(OC)c(OC)c(OC)c2)ncc1CCc1ccccc1 [compound 87, N-Methyl-2-((5-phenethyl-2-((3,4,5-trimethoxyphenyl)amino)pyrimidin-4-yl)amino)benzamide] | 200 to 2000 nM
11 | CNC(=O)c1ccccc1Nc1nc(Nc2ccc3c(c2)CCC(=O)N3)ncc1-c1ccccc1 [compound 89, N-Methyl-2-((2-((2-oxo-1,2,3,4-tetrahydroquinolin-6-yl)amino)-5-phenylpyrimidin-4-yl)amino)benzamide] | < 200 nM
12 | CNC(=O)c1ccccc1Nc1nc(Nc2cc(N3CCOCC3)cc(N3CCOCC3)c2)ncc1C(F)(F)F [compound 90, 2-(2-(3,5-dimorpholinophenylamino)-5-(trifluoromethyl)pyrimidin-4-ylamino)-N-methylbenzamide] | < 200 nM
13 | CNC(=O)c1ccccc1Oc1nc(Nc2cc(OC)c(OC)c(OC)c2)ncc1C(F)(F)F [compound 92, N-Methyl-2-(5-(trifluoromethyl)-2-(3,4,5-trimethoxyphenylamino)pyrimidin-4-yloxy)benzamide] | < 200 nM
14 | CNC(=O)c1ccccc1Oc1nc(Nc2ccccc2)ncc1C(F)(F)F [compound 99, N-methyl-2-((2-(phenylamino)-5-(trifluoromethyl)pyrimidin-4-yl)oxy)benzamide] | > 2000 nM
15 | CNC(=O)c1ccccc1Oc1nc(Nc2cc(Br)ccc2C)ncc1C(F)(F)F [compound 100, 2((2-((5-bromo-2-methylphenyl)amino)-5-(trifluoromethyl)pyrimidin-4-yl)oxy)-N-methylbenzamide] | > 2000 nM
16 | CNC(=O)c1ccccc1Oc1nc(Nc2cc(OC)ccc2C)ncc1C(F)(F)F [compound 101, 2-((2-((5-methoxy-2-methylphenyl)amino)-5-(trifluoromethyl)pyrimidin-4-yl)oxy)-N-methylbenzamide] | > 2000 nM
17 | CNC(=O)c1ccccc1Oc1nc(Nc2ccc(C)c(Br)c2)ncc1C(F)(F)F [compound 102, 2-((2-((3-bromo-4-methylphenyl)amino)-5-(trifluoromethyl)pyrimidin-4-yl)oxy)-N-methylbenzamide] | > 2000 nM
18 | CNC(=O)c1ccccc1Oc1nc(Nc2ccccc2OC)ncc1C(F)(F)F [compound 103, 2-((2-((2-methoxyphenyl)amino)-5-(trifluoromethyl)pyrimidin-4-yl)oxy)-N-methylbenzamide] | > 2000 nM
19 | CNC(=O)c1ccccc1Oc1nc(Nc2cc(C)ccc2C)ncc1C(F)(F)F [compound 104, 2-((2-((2,5-dimethylphenyl)amino)-5-(trifluoromethyl)pyrimidin-4-yl)oxy)-N-methylbenzamide] | > 2000 nM
20 | CNC(=O)c1ccccc1Oc1nc(Nc2ccc(C)c(C)c2)ncc1C(F)(F)F [compound 106, 2-((2-((3,4-dimethylphenyl)amino)-5-(trifluoromethyl)pyrimidin-4-yl)oxy)-N-methylbenzamide] | 200 to 2000 nM
21 | CNC(=O)c1ccccc1Oc1nc(Nc2ccc(C)cc2Cl)ncc1C(F)(F)F [compound 107, 2-((2-((2-chloro-4-methylphenyl)amino)-5-(trifluoromethyl)pyrimidin-4-yl)oxy)-N-methylbenzamide] | > 2000 nM
22 | CNC(=O)c1ccccc1Oc1nc(Nc2ccc3c(c2)CCC(=O)N3)ncc1C(F)(F)F [compound 110, N-methyl-2-((2-((2-oxo-1,2,3,4-tetrahydroquinolin-6-yl)amino)-5-(trifluoromethyl)pyrimidin-4-yl)oxy)benzamide] | 200 to 2000 nM
23 | CNC(=O)c1ccccc1Oc1nc(Nc2ccccc2)ncc1Br [compound 111, 2-((5-bromo-2-(phenylamino)pyrimidin-4-yl)oxy)-N-methyl benzamide] | > 2000 nM
24 | CNC(=O)c1ccccc1Oc1nc(Nc2cc(Br)ccc2C)ncc1Br [compound 112, 2-((5-bromo-2-((5-bromo-2-methylphenyl)amino)pyrimidin-4-yl)oxy)-N-methylbenzamide] | > 2000 nM
25 | CNC(=O)c1ccccc1Oc1nc(Nc2cccc(F)c2F)ncc1C(F)(F)F [compound 113, 2-((2-((2,3-difluorophenyl)amino)-5-(trifluoromethyl)pyrimidin-4-yl)oxy)-N-methylbenzamide] | > 2000 nM
26 | Clc1cnc(Nc2ccccc2)nc1Nc1ccccc1 [compound 114, 5-chloro-N^2,N^4-diphenylpyrimidine-2,4-diamine] | > 2000 nM
27 | CNC(=O)c1ccccc1Sc1nc(Nc2cc(OC)ccc2C)ncc1C(F)(F)F [compound 117, 2-((2-((5-methoxy-2-methylphenyl)amino)-5-(trifluoromethyl)pyrimidin-4-yl)thio)-N-methylbenzamide] | > 2000 nM
28 | COc1cccc(Nc2nc(Nc3ccc4c(c3)CCC(=O)N4)ncc2C(F)(F)F)c1 [compound 119, 6-((4-((3-methoxyphenyl)amino)-5-(trifluoromethyl)pyrimidin-2-yl)amino)-3,4-dihydroquinolin-2(1H)-one] | < 200 nM

From US10266549B2, “ULK1 inhibitors and methods using same” (SALK INSTITUTE FOR BIOLOGICAL STUDIES, priority 2014, dated 2019)
